Laboratory results: a melting point compilation (Tetko et al.; mined from patent text by program, amines drawn as free bases though some values may be those of a salt)

| melting point | SMILES |
| --- | --- |
| 240 to 241 °C | O=C1NC(=O)C2(N1)C(=O)N(Cc1ccc(Br)cc1F)c1c(Cl)cccc12 (centres undefined) |
| 101 to 102 °C | Cc1coc2c1C(=O)CC(c1ccc(F)cc1F)C2 (centres undefined) |
| 124 to 127 °C | CCOC(=O)C1=Cc2cc(-c3ccc(OCC)cc3)ccc2OCC1 |
| 83 °C | COCCCN1C(=O)CS(=Cc2ccccc2Cl)C1=O (centres undefined) |
| 119 °C | COC(=O)C(C)C(=O)Nc1ccc(OCc2cccc(F)c2)cc1 (centres undefined) |
| 192 to 194 °C | CCOC(=O)c1cn(CCCl)c2nc(-c3ccncc3)c(F)cc2c1=O |
| 75 °C | CCc1cc(N)c(C(=O)OC)c(CC)n1 |
| 118 to 120 °C | CCCCc1nc2c(N)nc3ccccc3c2n1CCCCSc1ccccc1 |
| 132 to 133 °C | COC(=O)Cc1n[nH]c(C)c1[N+](=O)[O-] |
| 145 to 147 °C | COc1ccc(S(=O)(=O)N(CC(=O)O)Cc2ccccc2N)cc1 |
| 89 to 91 °C | CCOC(=O)C(C)=NNc1ccc(F)c(Cl)c1 |
| 188 °C | CCOc1nc(N)nc(-c2ccccc2)c1-c1ccc(=O)n(C(C)C)n1 |
| 109 °C | CC(=O)c1c(C)nc2ccccc2c1NCc1cccc(Br)c1 |
| 282 to 283 °C | CCc1cc(Cl)cc2[nH]c(C(=O)O)cc(=O)c12 |
| 228 to 230 °C | Cc1cc(NC(=O)CCC(=O)O)ccc1-n1c(C)nc2ccccc2c1=O |
| 183 to 187 °C | O=C(O)Cc1c(C(=O)O)c2cc(Oc3ccc(Cl)cc3)ccc2n1-c1ccc(N2CCCCC2)cc1 |
| 118 to 119 °C | COc1ccc(COC(=O)NCCc2c[nH]c3ccc(F)cc23)cc1 |
| 154 to 156 °C | C=C(c1ccc(C(=O)N(C)OC)cc1)C(O)(Cn1cncn1)c1ccc(F)cc1F (centres undefined) |
| 36 °C | Cc1ccc(-c2nc(CCCCCCOC(C)(C)C#N)c(C)o2)cc1 |
| 118 to 120 °C | COC(=O)CCCCc1ccc(NC(=O)N(CCO)C2CCN(Cc3ccccc3)CC2)cc1 |
| 82 to 86 °C | C#CCn1c(-c2cccc(C=O)c2)nc(CC)c(CC)c1=O |
| 252 to 254 °C | CCNC(=O)c1cnc(SC)nc1Nc1ccc2[nH]ncc2c1 |
| 262 to 263 °C | CCOP(=O)(Cc1ccc(N(C(=O)c2cc3c(s2)-c2c(SC)sc(C(N)=O)c2CC3)c2ccc(CP(=O)(OCC)OCC)cc2)cc1)OCC |
| 207 °C | Cc1nn(C)c(C(=O)O)c1-c1ccc(Cl)c(C(=O)NCC23CC4CC(CC(C4)C2)C3)c1 |
| 334 °C | Cn1cc(C(=O)O)c(=O)c2cc(Cl)c(N3CCOCC3)cc21 |

| melting point | SMILES |
| --- | --- |
| 230 °C | O=C(Nc1ccc2ccc(Cl)nc2n1)c1ccc(Cl)c(Cl)c1 |
| 49 to 50 °C | CCSc1nc2cc(Cl)ccc2s1 |
| 114 to 116 °C | CCOC(=O)c1c(Cn2cncn2)nc2ccc(Cl)cc2c1-c1ccccc1 |
| 145 to 147 °C | CCCC(C=NNC(C)=O)c1ccc(Cl)cc1Cl (centres undefined) |
| 155 to 160 °C | COn1cc(C(=O)NCc2ccc(Cl)cc2)c(=O)c2ccccc21 |
| 129 to 132 °C | CC1=C(C(=O)Nc2ccccn2)C(c2ccccc2Cl)C(C(=O)OCCCCn2c(C)nc3cnccc32)=C(c2ccc(F)cc2)N1 (centres undefined) |
| 242 to 243 °C | CCOC(=O)c1nnc2ccc(NC(=O)NC(Cc3ccccc3)C(=O)OC)cc2c1O (centres undefined) |
| 157 to 159 °C | CC(SC(=O)c1ccccc1)C(=O)N1c2ccccc2CCC1C(=O)O (centres undefined) |
| 81 °C | CCOC(=O)C[C@H]1c2ccc(OC)cc2CC[C@H]1c1ccc(OC)cc1 (racemic) |
| 124 to 129 °C | CC1(C)CC(=O)C(C(=O)Nc2ccc(Cl)c(Cl)c2)C(=O)C1 |
| 94 to 97 °C | CCOCc1nc2cnc(C)c(C)c2n1NC1CCOCC1 |
| 192 to 195 °C | CCCCCC1Cc2cc(OCC(=O)O)c(Cl)c(Cl)c2C1=O (centres undefined) |
| 219 to 220 °C | CCc1nc2c(N)nc3cc(CCC(=O)N(C)C)ccc3c2n1CC1CCOCC1 |
| 31 to 33 °C | CCOC(=O)c1ocnc1C |
| 141 to 142 °C | CCCCCCCCCC(=O)Nc1ccc(S(=O)(=O)Nc2nnc(C)s2)cc1 |
| 299 to 300 °C | CCn1cc(C(=O)O)c(=O)c2cc(F)c(N3CCCC3)nc21 |
| 97 °C | C=C(C(=O)c1cc2c(c(C)c1C)OC(C(=O)O)C2)C(C)C (centres undefined) |
| 176 to 178 °C | CCC(C)n1cc(Cl)nc(N2CCc3cc(OC)cc(C)c32)c1=O (centres undefined) |
| 102 to 104 °C | COC(=O)Cn1c(CCc2ccccc2)ccc(NC(=O)OCc2ccccc2)c1=O |
| 102 to 105 °C | CC(C)(C)OC(=O)N1CCC(=CC(=O)NCc2ccc(F)c(F)c2)CC1 |
| 170 to 173 °C | CCOC(=O)C1CN(S(C)(=O)=O)CCN1CC=CC(=O)Nc1cc2c(Nc3ccc(F)c(Cl)c3)ncnc2cc1OCC1CC1 (centres undefined) |
| 126 to 128 °C | CCOC(=O)Cn1c(-c2ccc(F)cc2)nc2cccnc21 |
| 85 to 88 °C | CC(C)(C)OC(=O)N1CCc2cccc([N+](=O)[O-])c2CC1 |
| 127 to 128 °C | CC(=O)NCc1ccc(CN2CCN(c3nc(C)cc(C)n3)CC2)cc1 |
| 114 °C | CCCc1nn(C)c2c(NCc3ccc4c(c3)OCO4)nc(-c3ccc(C(=O)O)cc3)nc12 |

Continued, molecule first:

| SMILES | melting point |
| --- | --- |
| O=CC=C(c1cccc(F)c1)c1cccc(F)c1 | 51 to 53 °C |
| CC(=O)NCc1ccc(C(C)N2CCN(c3ccc(F)cc3)CC2)cc1 (centres undefined) | 128 to 130 °C |
| CC(O)C=CS(C)(=O)=O (centres undefined) | 70 to 72 °C |
| CC(C)NC(=O)CCC(=O)c1ccccc1 | 118 to 121 °C |
| O=C(O)CCNC(=O)CNC(=O)c1csc(NC(=O)NCc2ccccc2)n1 | 174 °C |
| NS(=O)(=O)C=C(c1ccccc1)c1ccccc1 | 134 to 135 °C |
| CSC1NC(=O)N(c2ccc(C)cc2)C(=O)N1 | 276 to 278 °C |
| O=C(Nc1ccc(C(F)(F)F)cc1)Nc1ccc2c(c1)OC(F)(F)O2 | 195 to 200 °C |
| CC(=NC#N)N[C@@H]1c2cc(C#N)ccc2OC(C)(C)[C@H]1O (relative stereo) | 236 to 238 °C |
| CN(C(=O)c1ccc2nonc2c1)[C@H]1CC[C@H](N=[N+]=[N-])CC1 | 149 to 150 °C |
| O=C([C@H]1CCc2cc(Cl)c(Cl)cc21)N1CCSC[C@H]1CN1CCCC1 | 123 to 124 °C |
| CC(C)(C)OC(=O)NC1(C(=O)NCC(F)(F)F)CC1 | 166 to 167 °C |
| CC(C)c1ccc(-n2nc(C(C)(C)C)cc2NC(=O)c2cncc3cc(Oc4cc(N)ncn4)ccc23)cc1 | 131 to 133 °C |
| Cc1ccc(NC(=O)NCC2(c3ccccc3)CCCCC2)cc1 | 135 to 137 °C |
| CNC1C(O)C(OC2C(N)CC(N)C(OC3OC(C(C)O)C(O)C(O)C3N)C2O)OCC1(C)O (centres undefined) | 65 °C |
| CC1OC(=O)c2c(S)cccc21 (centres undefined) | 40 °C |
| CC1(C)CCC(C)(C)c2cc(C(=O)c3cccc(I)c3)ccc21 | 130 to 131 °C |
| CCn1ncnc1COc1nn2c(-c3ccccc3F)nncc2c1-c1ccco1 | 182 to 183 °C |
| COC(=O)c1ccc2cc(-c3ccc(OC)c(C45CC6CC(CC(C6)C4)C5)c3)ccc2c1 | 221 to 227 °C |
| CC1(C)CON(Cc2ccc(N)cc2Br)C1=O | 109 to 111 °C |
| CC(C)(C)NS(=O)(=O)c1cc(C(=O)O)ccc1C(=O)O | 210 to 213 °C |
| CN(C=O)C1CCN(CC2=Cc3ccccc32)CC1 | 86 to 88 °C |
| O=[N+]([O-])c1ccc(-c2nc(CO)no2)cc1 | 155 to 156 °C |
| COC(=O)c1cccc(N)c1NCc1ccc(-c2ccccc2C#N)cc1 | 110 to 111 °C |
| CSC(=NC#N)N[C@@H]1c2cc(S(C)(=O)=O)ccc2OC(C)(C)[C@H]1O (relative stereo) | 219 to 220 °C |

| SMILES | melting point |
| --- | --- |
| CCCc1nc2c(N)nc3cc(-c4ccccc4NC(C)=O)ccc3c2s1 | 206 to 209 °C |
| Cc1cnc(N)cc1C | 113 to 114 °C |
| CC(Oc1ccc(-c2ccc(C#N)c(C#N)c2)cc1)C(O)CCc1cccnc1 (centres undefined) | 136 to 137 °C |
| O=C(Nc1ccc(-c2nc3ccccc3s2)cc1)C(Cl)Cl | 223 to 225 °C |
| CC(C)(C)c1cc(CCc2ccccc2NC(=O)NC2CCN(Cc3ccccc3)CC2)cc(C(C)(C)C)c1O | 79 to 81 °C |
| O=C1C=CC(OC2CCCC2)N1S(=O)(=O)c1ccccc1 (centres undefined) | 123 to 124 °C |
| Cc1nc2c(N)c(C(=O)C3OC3c3ccsc3)ccn2c1C (centres undefined) | 186 to 189 °C |
| O=C1C(=O)c2ccccc2C2=C1SCC1(CCN(C3CCCCC3)CC1)O2 | 195 to 196 °C |
| CN(C)C=C(C(=O)C(C)(C)C)n1ccnc1 | 45 to 50 °C |
| Cc1oc(-c2ccccc2)nc1CCc1ccc(CO)cc1 | 103 to 104 °C |
| O=c1[nH]c2cc([N+](=O)[O-])c3c(c2[nH]c1=O)CN(S(=O)(=O)c1cccs1)CC3 | > 300 °C |
| CC(Br)C(=O)c1ccc(O)cc1 (centres undefined) | 95 to 97 °C |
| COC(=O)[C@H](Cc1c[nH]c2ccccc12)N(CCN(CC(=O)OC(C)(C)C)CC(=O)OC(C)(C)C)CCN(CC(=O)OC(C)(C)C)CC(=O)OC(C)(C)C | 71 °C |
| Fc1ccc(Cn2c(NC3CCN(CCSc4ncccn4)CC3)nc3ccccc32)cc1 | 146 to 148 °C |
| COc1cc(-n2ccc(C(F)(F)F)cc2=O)c(F)cc1C#N | 194 to 196 °C |
| Fc1ccc2[nH]cc(C3CCC4(CC3)OCCO4)c2c1 | 183 to 185 °C |
| CC(C)(C)C(=O)N[C@H]1CC[C@H](CCN2CCC(c3cccc4c3CCO4)CC2)CC1 | 192 °C |
| CCN1C(=O)OCC1Cc1ccncc1 (centres undefined) | 180 to 182 °C |
| CCCCNC(=O)[C@H](C)C[C@H](O)[C@H](CC1CCCCC1)NC(=O)[C@H](Cc1cscn1)NC(=O)[C@@H](CC(=O)N1CCOCC1)Cc1ccc(OC)cc1 | 130 to 132 °C |
| CC1(C)Cc2c(ccc3c2C(c2cccc(-c4ccc(NC(=O)OCc5ccccc5)cc4)c2)=NCC3(C)C)O1 | 126 to 129 °C |
| CCN1CCC(c2c[nH]c3ccc(NC(=N)c4cccs4)cc23)CC1 | 150 to 152 °C |
| CNc1nc(-c2ccccc2)c(-c2nc3ccccc3c(=O)n2-c2ccccc2C)s1 | 220 to 225 °C |
| OCc1cc2ccc3c4ccccc4ccc3c2o1 | 125 to 126 °C |
| Nc1cc(C(=O)NNC(=O)Cc2cccc(O)c2)ccc1O | 264 to 265 °C |
